Experimental data reported in patent publication US20220110919A1, “METHODS OF MODULATING LEUKOCYTES ACTIVATION AND THROMBOCYTE CLEARANCE WITH INHIBITORS OF SPECIFIC NEURAMINIDASE ISOENZYMES” (The Governors of the University of Alberta, priority 2018, published 2022).

Tested on: reticulated platelets
Assay: Passive Antibody Transfer Model of ITP (immunothrombocytopenia)
Format: in vivo
Details: C57Bl/6NCrI mice, anti-CD41 antibody; daily intraperitoneal 30 μg/kg vs saline
Text: The Passive Antibody Transfer Model of ITP has been extensively used to understand the progression of chronic ITP and to rapidly evaluate the efficacy of various therapeutics (Neschadim et al., 2015). The model is characterized by a rapid onset of the ITP and clear involvement of phagocytic monocytes in platelet destruction. In addition, it provides a possibility to use self-antigens relevant to the human condition. Depending on the type, quantity, and frequency of the administered antibody it is possible to vary the severity and the persistence of the induced ITP by fine-tuning the rate and the level of platelet decline whereas the repeated administration of the monoclonal antibody simulates chronic human IT.
Female 6-week old C57Bl/6NCrI mice and genetically-modified C57Bl/6NCrI mice with neu1 deficiency (Passive Antibody Transfer Model of ITP, Neschadim et al., 2015) received escalating daily doses (68 μg/kg on the 1st and 2d days, 102 μg/kg on the third day) of anti-CD41 anti-platelet monoclonal mouse antibody (clone MWReg30) by intraperitoneal injection. The reticulated platelets were measured daily for three days by flow cytometric analysis. Control mice (C57B16) received injections of saline. […]

With `CCCCC(=O)NCC(O)C(O)C1OC(C(=O)O)=CC(O)[C@H]1NC(C)=O` (stereo partly drawn) [compound 50, 5-Acetamido-9-pentanamido-2,6-anhydro-3,5-dideoxy-D-glycero-D-galacto-non-2-enonic acid] the platelet reduction rate was “lower platelet reduction rates”.
